This note sets out measurements from patent US9834550B2, “Pyridopyrimidinone compounds for modulating the catalytic activity of histone lysine demethylases (KDMs)” (Dong-A Socio Holdings Co., Ltd., priority 2014, dated 2017).

Assay [1] concerns MDA-MB-231 cell migration. Description: Wound healing assay. The format is cell-based. Particulars: 24 h treatment; compared to DMSO; FIG. 1. Here is the method: Breast cancer cells (MDA-MD-231) were seeded into 12-well plates (2500 cells/well), at bottom of which culture-inserts were implemented. The cells were cultured to subconfluence in RPMI1640 medium supplemented with 0.5% FBS and 100 μg/ml penicillin/streptomycin, and then starved in serum-free media for one day at 37° C. and 5% CO2. The inserts were removed to generate two cell patches separated each other by 0.9 mm of ‘wound fields’. Cultures were then treated with test compounds for 24 h. The results of wound healing assays at indicated time were photographed under microscopy with ×40 magnification after generating the wound fields. […] Similar results were obtained in three independent samples. The cancer cells were stained with 0.1% crystal violet at 24-hours time points.

Assay [2] addresses T1, Recombinant human JARID1B/KDM5B (Homo sapiens, UniProt Q9UGL1).
T1 construct: purchased Active Motif 31432; host or cells: Sf9 insect cells
Description: LANCE Ultra TR-FRET demethylase assay with FLAG-tagged JARID1B. The format is biochemical. The note with it: 100 nM compound; 500 nM biotinylated H3K4me3 peptide substrate. In a few lines:
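Sf9-expressed N-FLAG full-length JARID1B (10–30 nM) preincubated 5 min with compound at 20, 1 or 0.1 uM (1% DMSO), then 500 nM biotin-H3K4me3 peptide, 500 uM 2-OG, 25 uM Fe(II), 2 mM ascorbate added; 30 min at room temperature in Hepes pH 7.5. H3K4me2/1 product read by TR-FRET 665/590 ratio.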

Assay [3] concerns MDA-MB-231 breast cancer cells. Briefly: Cell invasion assay (transwell, BME). It counts as cell-based. Particulars: 10 μM; 24-h incubation; FIG. 2. Here is the method:
The ability of MDA-MB-231 breast cancer cells to invade into the basement membrane through a layer of BME (Basement Membrane Extract) was determined by using transwell inserts in a 24-well plate. The pore size of membrane was […]. The basement membrane was reconstituted by loading cold BME on top of the polycarbonate filter of the inserts of the transwell plate. After gelation of Matrigel at 37° C., MDA-MB-231 cells were plated into the inserts (1×10^5 cells/0.3 ml/well), and complete media were added to the lower wells (0.5 ml/well). To analyze the effect of 10 μM of compounds No. 87, 167, isonicotinic acid r or SAHA, was present in the cell suspensions. After a 24-h incubation, the noninvasive cells were remained within the inserts while cells that traversed through the BME and the polycarbonate filter were attached to the lower surface of the filter. The penetrated cells were then stained with 0.1% crystal violet.

The structures appear in SMILES notation.

T1 sequence (Q9UGL1 whole entry): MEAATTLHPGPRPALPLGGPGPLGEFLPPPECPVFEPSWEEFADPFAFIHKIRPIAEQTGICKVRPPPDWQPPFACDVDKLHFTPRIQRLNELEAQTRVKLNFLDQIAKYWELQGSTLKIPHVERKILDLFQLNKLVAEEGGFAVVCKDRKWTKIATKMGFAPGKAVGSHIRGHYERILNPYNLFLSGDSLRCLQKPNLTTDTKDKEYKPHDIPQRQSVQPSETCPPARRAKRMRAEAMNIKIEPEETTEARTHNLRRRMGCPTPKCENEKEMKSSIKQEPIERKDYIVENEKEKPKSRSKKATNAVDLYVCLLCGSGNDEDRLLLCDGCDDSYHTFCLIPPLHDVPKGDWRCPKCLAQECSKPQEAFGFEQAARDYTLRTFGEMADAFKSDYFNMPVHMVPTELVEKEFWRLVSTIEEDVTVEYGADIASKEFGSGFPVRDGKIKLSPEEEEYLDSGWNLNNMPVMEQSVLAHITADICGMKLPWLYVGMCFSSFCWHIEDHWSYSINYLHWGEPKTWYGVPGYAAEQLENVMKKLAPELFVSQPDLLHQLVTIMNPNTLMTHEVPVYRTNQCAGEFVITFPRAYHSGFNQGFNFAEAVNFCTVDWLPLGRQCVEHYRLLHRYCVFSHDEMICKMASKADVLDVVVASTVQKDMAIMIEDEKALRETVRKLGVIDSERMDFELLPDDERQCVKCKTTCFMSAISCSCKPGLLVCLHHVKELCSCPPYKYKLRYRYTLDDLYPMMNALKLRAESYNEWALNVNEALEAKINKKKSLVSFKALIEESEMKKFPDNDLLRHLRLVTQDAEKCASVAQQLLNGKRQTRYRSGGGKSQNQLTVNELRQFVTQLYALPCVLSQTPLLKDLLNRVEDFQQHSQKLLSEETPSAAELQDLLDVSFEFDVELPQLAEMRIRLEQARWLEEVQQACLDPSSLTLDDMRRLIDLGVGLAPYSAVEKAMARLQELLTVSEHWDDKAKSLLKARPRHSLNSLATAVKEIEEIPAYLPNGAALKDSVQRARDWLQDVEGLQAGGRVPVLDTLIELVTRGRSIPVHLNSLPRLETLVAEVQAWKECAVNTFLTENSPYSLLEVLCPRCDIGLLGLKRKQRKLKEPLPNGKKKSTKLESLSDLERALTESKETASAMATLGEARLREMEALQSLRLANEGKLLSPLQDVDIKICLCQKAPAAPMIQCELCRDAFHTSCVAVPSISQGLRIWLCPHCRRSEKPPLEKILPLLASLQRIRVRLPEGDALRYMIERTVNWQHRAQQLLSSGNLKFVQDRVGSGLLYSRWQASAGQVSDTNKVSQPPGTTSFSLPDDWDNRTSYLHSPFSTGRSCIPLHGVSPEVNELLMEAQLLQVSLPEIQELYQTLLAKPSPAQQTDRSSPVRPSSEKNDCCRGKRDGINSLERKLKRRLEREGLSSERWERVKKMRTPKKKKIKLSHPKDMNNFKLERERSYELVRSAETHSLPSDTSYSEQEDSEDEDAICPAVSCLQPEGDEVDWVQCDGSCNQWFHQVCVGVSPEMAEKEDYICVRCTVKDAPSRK

Take `CCN(CC)CCCC(C)NCc1nccc2c(=O)[nH]cnc12` (stereo not drawn) [Example 87, 8-(((5-(diethylamino)pentan-2-yl)amino)methyl)pyrido[3,4-d]pyrimidin-4(3H)-one]: in assay [1], the “MDA-MB-231 cell migration (wound healing)” value is “inactive”. The inhibition at 0.1 µM in assay [2] is less than 20%. The like results for `CN1CCC(CNCc2nccc3c(=O)[nH]c(COc4ccc(Cc5ccccc5)cc4)nc23)C1` (stereo not drawn) [Example 144, 2-((4-benzylphenoxy)methyl)-8-((((1-methylpyrrolidin-3-yl)methyl)amino)methyl)pyrido[3,4-d]pyrimidin-4(3H)-one] were, in that order, “suppressed MDA-MB-231 cell migration” and greater than 50%. Turning to `O=c1[nH]c(COc2ccc(F)c(Cl)c2)nc2c(CNCC3CNCCO3)nccc12` (stereo not drawn) [Example 167, 2-((3-chloro-4-fluorophenoxy)methyl)-8-(((morpholin-2-ylmethyl)amino)methyl)pyrido[3,4-d]pyrimidin-4(3H)-one], the “MDA-MB-231 breast cancer cell invasion potential” value in assay [3] was “decreased the MDA-MB-231 breast cancer cell invasion potential”. Further, the inhibition at 0.1 µM in assay [2] was greater than 50%. As to `O=C(CNCc1nccc2c(=O)[nH]c(COc3ccc(F)c(Cl)c3)nc12)N1CCC(N2CCCC2)CC1` [Example 234, 2-((3-chloro-4-fluorophenoxy)methyl)-8-(((2-oxo-2-(4-(pyrrolidin-1-yl)piperidin-1-yl)ethyl)amino)methyl)pyrido[3,4-d]pyrimidin-4(3H)-one], the inhibition at 0.1 µM in assay [2] is greater than 50%. The same measure, in the same setting: to `O=C(CNCc1nccc2c(=O)[nH]c(COc3ccc(F)c(Cl)c3)nc12)N1CCC(N2CCOCC2)C1` (stereo not drawn) [Example 235, 2-((3-chloro-4-fluorophenoxy)methyl)-8-(((2-(3-morpholinopyrrolidin-1-yl)-2-oxoethyl)amino)methyl)pyrido[3,4-d]pyrimidin-4(3H)-one] belongs 20 to 50%. Same read-out and setting: the figure for `CCN(CC)C1CCN(C(=O)CNCc2nccc3c(=O)[nH]c(COc4ccc(F)c(Cl)c4)nc23)C1` (stereo not drawn) [Example 236, 2-((3-chloro-4-fluorophenoxy)methyl)-8-(((2-(3-(diethylamino)pyrrolidin-1-yl)-2-oxoethyl)amino)methyl)pyrido[3,4-d]pyrimidin-4(3H)-one] is greater than 50%. Still for that read-out and setting: the figure for `CN(C)C1CCN(C(=O)CNCc2nccc3c(=O)[nH]c(COc4ccc(F)c(Cl)c4)nc23)C1` (stereo not drawn) [Example 237, 2-((3-chloro-4-fluorophenoxy)methyl)-8-(((2-(3-(dimethylamino)pyrrolidin-1-yl)-2-oxoethyl)amino)methyl)pyrido[3,4-d]pyrimidin-4(3H)-one] is greater than 50%; for `CNC1CCN(C(=O)CNCc2nccc3c(=O)[nH]c(COc4ccc(F)c(Cl)c4)nc23)C1` (stereo not drawn) [Example 238, 2-((3-chloro-4-fluorophenoxy)methyl)-8-(((2-(3-(methylamino)pyrrolidin-1-yl)-2-oxoethyl)amino)methyl)pyrido[3,4-d]pyrimidin-4(3H)-one] it is greater than 50%; for `O=C(CNCc1nccc2c(=O)[nH]c(COc3ccc(F)c(Cl)c3)nc12)N[C@@H]1CCNC1` [Example 239, (R)-2-(((2-((3-chloro-4-fluorophenoxy)methyl)-4-oxo-3,4-dihydropyrido[3,4-d]pyrimidin-8-yl)methyl)amino)-N-(pyrrolidin-3-yl)acetamide] it is greater than 50%. `O=C(CC1CCNCC1)NCc1nccc2c(=O)[nH]c(COc3ccc(F)c(Cl)c3)nc12` [Example 240, N-((2-((3-chloro-4-fluorophenoxy)methyl)-4-oxo-3,4-dihydropyrido[3,4-d]pyrimidin-8-yl)methyl)-2-(piperidin-4-yl)acetamide]: the inhibition at 0.1 µM in assay [2] is less than 20%. For the molecule `O=C(NCc1nccc2c(=O)[nH]c(COc3ccc(F)c(Cl)c3)nc12)C1CCCNC1` (stereo not drawn) [Example 241, N-((2-((3-chloro-4-fluorophenoxy)methyl)-4-oxo-3,4-dihydropyrido[3,4-d]pyrimidin-8-yl)methyl)piperidine-3-carboxamide], the inhibition at 0.1 µM in assay [2] is less than 20%. For the molecule `O=C(CCCCCCC(=O)Nc1ccccc1)NO` [SAHA, reference compound], the “MDA-MB-231 breast cancer cell invasion potential” value in assay [3] was “decreased the MDA-MB-231 breast cancer cell invasion potential”.
